Laboratory results taken from PubChem BioAssay (NCI).
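Results reflect a 48-hour exposure of cells in 96-well plates to compound at five concentrations. TGI is the concentration that stops growth completely.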

Assays:
Assay in all cases: DTP human tumour cell line panel, 48 h
786-0 renal = system: 786-0 renal
A498 renal = system: A498 renal
A549 NSCLC = system: A549 NSCLC
ACHN renal = system: ACHN renal
BT-549 breast = system: BT-549 breast
CAKI-1 renal = system: CAKI-1 renal
CCRF-CEM leukemia = system: CCRF-CEM leukemia
COLO 205 colon = system: COLO 205 colon
EKVX NSCLC = system: EKVX NSCLC
HCC-2998 colon = system: HCC-2998 colon
HCT-116 colon = system: HCT-116 colon
HCT-15 colon = system: HCT-15 colon
HL-60(TB) leukemia = system: HL-60(TB) leukemia
HOP-62 NSCLC = system: HOP-62 NSCLC
HOP-92 NSCLC = system: HOP-92 NSCLC
HS 578T breast = system: HS 578T breast
HT29 colon = system: HT29 colon
IGROV1 ovarian = system: IGROV1 ovarian
K-562 leukemia = system: K-562 leukemia
KM12 colon = system: KM12 colon
LOX IMVI melanoma = system: LOX IMVI melanoma
M14 melanoma = system: M14 melanoma
MALME-3M melanoma = system: MALME-3M melanoma
MCF7 breast = system: MCF7 breast
MDA-MB-231 breast = system: MDA-MB-231 breast
MDA-MB-435 = system: MDA-MB-435
MDA-N = system: MDA-N
NCI-H226 lung = system: NCI-H226 lung
NCI-H23 lung = system: NCI-H23 lung
NCI-H460 lung = system: NCI-H460 lung
NCI-H522 lung = system: NCI-H522 lung
NCI/ADR-RES ovarian = system: NCI/ADR-RES ovarian
OVCAR-3 ovarian = system: OVCAR-3 ovarian
OVCAR-4 ovarian = system: OVCAR-4 ovarian
OVCAR-5 ovarian = system: OVCAR-5 ovarian
OVCAR-8 ovarian = system: OVCAR-8 ovarian
PC-3 prostate = system: PC-3 prostate
RPMI-8226 leukemia = system: RPMI-8226 leukemia
RXF 393 renal = system: RXF 393 renal
SF-268 CNS = system: SF-268 CNS
SF-295 CNS = system: SF-295 CNS
SF-539 CNS = system: SF-539 CNS
SK-MEL-2 melanoma = system: SK-MEL-2 melanoma
SK-MEL-28 melanoma = system: SK-MEL-28 melanoma
SK-MEL-5 melanoma = system: SK-MEL-5 melanoma
SK-OV-3 ovarian = system: SK-OV-3 ovarian
SN12C renal = system: SN12C renal
SNB-19 CNS = system: SNB-19 CNS
SNB-75 CNS = system: SNB-75 CNS
SR leukemia = system: SR leukemia
SW-620 colon = system: SW-620 colon
T-47D breast = system: T-47D breast
TK-10 renal = system: TK-10 renal
U251 CNS = system: U251 CNS
UACC-257 melanoma = system: UACC-257 melanoma
UACC-62 melanoma = system: UACC-62 melanoma
UO-31 renal = system: UO-31 renal

Measured: TGI

O=C(O)c1ccc(Cc2ccccc2C(=O)O)cc1
> 100 µM: 786-0 renal | A498 renal | A549 NSCLC | ACHN renal | BT-549 breast | CAKI-1 renal | CCRF-CEM leukemia | COLO 205 colon | EKVX NSCLC | HCC-2998 colon | HCT-116 colon | HCT-15 colon | HL-60(TB) leukemia | HOP-62 NSCLC | HOP-92 NSCLC | HS 578T breast | HT29 colon | IGROV1 ovarian | K-562 leukemia | KM12 colon | LOX IMVI melanoma | M14 melanoma | MALME-3M melanoma | MCF7 breast | MDA-MB-231 breast | MDA-MB-435 | MDA-N | NCI-H226 lung | NCI-H23 lung | NCI-H460 lung | NCI-H522 lung | NCI/ADR-RES ovarian | OVCAR-3 ovarian | OVCAR-4 ovarian | OVCAR-5 ovarian | OVCAR-8 ovarian | PC-3 prostate | RPMI-8226 leukemia | RXF 393 renal | SF-268 CNS | SF-295 CNS | SF-539 CNS | SK-MEL-2 melanoma | SK-MEL-28 melanoma | SK-MEL-5 melanoma | SK-OV-3 ovarian | SN12C renal | SNB-19 CNS | SNB-75 CNS | SR leukemia | SW-620 colon | T-47D breast | TK-10 renal | U251 CNS | UACC-257 melanoma | UACC-62 melanoma | UO-31 renal
